Source: PubChem BioAssay AID220 (DTP/NCI, 2004)
Results filed as inconclusive are left out.

Tested on: CD8F1 mice, subcutaneous mammary adenocarcinoma, T/C%
Assay: NCI In Vivo Anticancer Drug Screen. Data for tumor model Mammary Adenocarcinoma CD8F1 (subcutaneous) in CD8F1
Settings: higher = larger tumour
Outline: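 Tumor-bearing mice, transplantable model; readout survival or tumor size; value = treated (T) / vehicle control (C).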

O=C(O)C1CSCN1 (stereo unspecified)
T/C (endpoint: median tumor weight change, dose: 12.5 mg/kg/injection, schedule: Q01DX001 (ip), vehicle: water): 79 % of control | T/C (endpoint: median tumor weight change, dose: 25.0 mg/kg/injection, schedule: Q01DX001 (ip), vehicle: water): 111 % of control | T/C (endpoint: median tumor weight change, dose: 50.0 mg/kg/injection, schedule: Q01DX001 (ip), vehicle: water): 173 % of control | T/C (endpoint: median tumor weight change, dose: 100.0 mg/kg/injection, schedule: Q01DX001 (ip), vehicle: water): 90 % of control | T/C (endpoint: median tumor weight change, dose: 200.0 mg/kg/injection, schedule: Q01DX001 (ip), vehicle: water): 59 % of control

CCOC(=O)c1c[nH]c2oc(/C=N/N3CC(CN4CCOCC4)OC3=O)cc2c1=O (stereo unspecified)
T/C (endpoint: median tumor weight (est.), dose: 12.5 mg/kg/injection, schedule: Q07DX005 (ip), vehicle: suspension in saline): 107 % of control | T/C (endpoint: median tumor weight (est.), dose: 25.0 mg/kg/injection, schedule: Q07DX005 (ip), vehicle: suspension in saline): 87 % of control | T/C (endpoint: median tumor weight (est.), dose: 50.0 mg/kg/injection, schedule: Q07DX005 (ip), vehicle: suspension in saline): 97 % of control | T/C (endpoint: median tumor weight (est.), dose: 100.0 mg/kg/injection, schedule: Q07DX005 (ip), vehicle: suspension in saline): 155 % of control | T/C (endpoint: median tumor weight (est.), dose: 400.0 mg/kg/injection, schedule: Q07DX005 (ip), vehicle: suspension in saline): 94 % of control

CN1CCN(CN2C(=O)C3C4C=CC(C3C2=O)C2C3C(=O)N(CN5CCN(C)CC5)C(=O)C3C42)CC1 (stereo unspecified)
T/C (endpoint: median tumor weight change, dose: 21.6 mg/kg/injection, schedule: Q01DX005 (ip), vehicle: water): 98 % of control | T/C (endpoint: median tumor weight change, dose: 24.8 mg/kg/injection, schedule: Q01DX005 (ip), vehicle: water): 84 % of control | T/C (endpoint: median tumor weight change, dose: 36.0 mg/kg/injection, schedule: Q01DX005 (ip), vehicle: water): 70 % of control | T/C (endpoint: median tumor weight change, dose: 41.4 mg/kg/injection, schedule: Q01DX005 (ip), vehicle: water): 25 % of control | T/C (endpoint: median tumor weight change, dose: 60.0 mg/kg/injection, schedule: Q01DX005 (ip), vehicle: water): 54 % of control | T/C (endpoint: median tumor weight change, dose: 69.0 mg/kg/injection, schedule: Q01DX005 (ip), vehicle: water): 23 % of control | T/C (endpoint: median tumor weight change, dose: 100.0 mg/kg/injection, schedule: Q01DX005 (ip), vehicle: water): 21 % of control | T/C (endpoint: median tumor weight change, dose: 108.0 mg/kg/injection, schedule: Q01DX001 (ip), vehicle: water): 33 % of control | T/C (endpoint: median tumor weight change, dose: 123.9 mg/kg/injection, schedule: Q01DX001 (ip), vehicle: water): 33 % of control

F[B-](F)(F)F
T/C (endpoint: median tumor weight (est.), dose: 12.5 mg/kg/injection, schedule: Q07DX005 (ip), vehicle: gum acacia): 109 % of control | T/C (endpoint: median tumor weight (est.), dose: 25.0 mg/kg/injection, schedule: Q07DX005 (ip), vehicle: gum acacia): 88 % of control | T/C (endpoint: median tumor weight (est.), dose: 50.0 mg/kg/injection, schedule: Q07DX005 (ip), vehicle: gum acacia): 83 % of control | T/C (endpoint: median tumor weight (est.), dose: 100.0 mg/kg/injection, schedule: Q07DX005 (ip), vehicle: gum acacia): 96 % of control | T/C (endpoint: median tumor weight (est.), dose: 200.0 mg/kg/injection, schedule: Q07DX005 (ip), vehicle: gum acacia): 74 % of control | T/C (endpoint: median tumor weight (est.), dose: 400.0 mg/kg/injection, schedule: Q07DX005 (ip), vehicle: gum acacia): 90 % of control

CNc1nc(NC)nc(NC)n1
T/C (endpoint: median tumor weight (est.), dose: 12.5 mg/kg/injection, schedule: Q07DX005 (ip), vehicle: Klucel (hydroxypropylcellulose) (HPC)): 83 % of control | T/C (endpoint: median tumor weight (est.), dose: 12.5 mg/kg/injection, schedule: Q07DX006 (ip), vehicle: Klucel (hydroxypropylcellulose) (HPC)): 86 % of control | T/C (endpoint: median tumor weight (est.), dose: 25.0 mg/kg/injection, schedule: Q07DX005 (ip), vehicle: Klucel (hydroxypropylcellulose) (HPC)): 163 % of control | T/C (endpoint: median tumor weight (est.), dose: 25.0 mg/kg/injection, schedule: Q07DX006 (ip), vehicle: Klucel (hydroxypropylcellulose) (HPC)): 72 % of control | T/C (endpoint: median tumor weight (est.), dose: 50.0 mg/kg/injection, schedule: Q07DX005 (ip), vehicle: Klucel (hydroxypropylcellulose) (HPC)): 107 % of control | T/C (endpoint: median tumor weight (est.), dose: 50.0 mg/kg/injection, schedule: Q07DX006 (ip), vehicle: Klucel (hydroxypropylcellulose) (HPC)): 203 % of control | T/C (endpoint: median tumor weight (est.), dose: 100.0 mg/kg/injection, schedule: Q07DX005 (ip), vehicle: Klucel (hydroxypropylcellulose) (HPC)): 93 % of control | T/C (endpoint: median tumor weight (est.), dose: 100.0 mg/kg/injection, schedule: Q07DX006 (ip), vehicle: Klucel (hydroxypropylcellulose) (HPC)): 294 % of control | T/C (endpoint: median tumor weight (est.), dose: 200.0 mg/kg/injection, schedule: Q07DX005 (ip), vehicle: Klucel (hydroxypropylcellulose) (HPC)): 174 % of control | T/C (endpoint: median tumor weight (est.), dose: 200.0 mg/kg/injection, schedule: Q07DX006 (ip), vehicle: Klucel (hydroxypropylcellulose) (HPC)): 117 % of control | T/C (endpoint: median tumor weight (est.), dose: 400.0 mg/kg/injection, schedule: Q07DX005 (ip), vehicle: Klucel (hydroxypropylcellulose) (HPC)): 65 % of control
